# Source: BindingDB's records for doi:10.1021/jm049768a (Eli Lilly, 2004)
# Molecular target: 3-phosphoinositide-dependent protein kinase 1 (Homo sapiens) (UniProt O15530)
# Experiment: Inhibition of human PDK-1
row,IC50 [µM],Structure (SMILES)
1,> 20,"CN(C)C(=O)N1CCn2cc(C3=C(c4cnc5ccccn45)C(=O)NC3=O)c3cccc(c32)C1 [7-(4-Imidazo[1,2-a]pyridin-3-yl-2,5-dioxo-2,5-dihydro-1H-pyrrol-3-yl)-3,4-dihydro-1H-[1,4]diazepino[6,7,1-hi]indole-2-carboxylic acid dimethylamide]"
2,6.5,"CC(C)OC(=O)N1CCn2cc(C3=C(c4cnc5ccccn45)C(=O)NC3=O)c3cccc(c32)C1 [7-(4-Imidazo[1,2-a]pyridin-3-yl-2,5-dioxo-2,5-dihydro-1H-pyrrol-3-yl)-3,4-dihydro-1H-[1,4]diazepino[6,7,1-hi]indole-2-carboxylic acid isopropyl ester]"
3,4.3,"O=C1NC(=O)C(c2cnc3ccccn23)=C1c1cn2c3c(cccc13)CN(C(=O)N1CCCCC1)CC2 [3-Imidazo[1,2-a]pyridin-3-yl-4-[2-(piperidine-1-carbonyl)-1,2,3,4-tetrahydro-[1,4]diazepino[6,7,1-hi]indol-7-yl]-pyrrole-2,5-dione]"
